# Where “and” joins values, the source holds several entries; their conditions need not be identical. Identical values can stand only once. Ends that are not written are not given here.
# Key:
# [1] = Electronic tongue analysis (Taste-Sensing System SA 402B); parameters: unit not given here; settings: reference solution 30 mM KCl + 0.3 mM tartaric acid as baseline, first measurement excluded; for Umami: sensor AAE; for Umami / Bitter / Sweet: detection threshold 0, room temperature; for Umami / Bitter / Sour / Salty: four replicates; for Sour: detection threshold -13, room temperature; for Salty: detection threshold -6, room temperature; for Sweet: measured five times
# Summary of the method: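 Room-temperature electronic-tongue readings with five taste probes, calibrated against a reference of 30 mM KCl and 0.3 mM tartaric acid. Samples at 0.1 mg/mL and 1.0 mg/mL were measured four times, sweetness five times, and the first run was dropped. Detection cut-offs were sour −13, salty −6, others 0.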
# [2] = system: human bronchial epithelial cells (BEAS-2B)
# [3] = system: human embryonic kidney cells (HEK293T)
# Description: The cytotoxicity of 73 synthetic peptides was evaluated using four human cell lines: human pancreatic ductal epithelial cells (HPNE), human embryonic kidney cells (HEK293T), human umbilical vein endothelial cells (HUVEC), and human bronchial epithelial cells (BEAS-2B). When cell density reached 70% confluence, the complete culture medium was replaced with serum-free maintenance medium, and peptides were added at a final concentration of 100 μM for 36 h. Control groups received only serum-free maintenance medium without peptides. Cell proliferation was assessed using the CCK-8 assay kit (Solarbio, CA1210) according to the manufacturer’s instructions.
# [4] = system: human pancreatic ductal epithelial cells (HPNE)
# [5] = system: human umbilical vein endothelial cells (HUVEC)
Substance,Umami ([1]; peptide 0.1 mg/mL),Umami ([1]; peptide 1 mg/mL),"Bitter ([1]; sensor C00, peptide 0.1 mg/mL)","Bitter ([1]; sensor C00, peptide 1 mg/mL)","Sour ([1]; sensor CA0, peptide 0.1 mg/mL)","Sour ([1]; sensor CA0, peptide 1 mg/mL)","Salty ([1]; sensor CT0, peptide 0.1 mg/mL)","Salty ([1]; sensor CT0, peptide 1 mg/mL)","Sweet ([1]; sensor GL1, peptide 0.1 mg/mL)","Sweet ([1]; sensor GL1, peptide 1 mg/mL)","Average cell viability, BEAS-2B [2]","Cell viability, BEAS-2B, Data1 [2]","Cell viability, BEAS-2B, Data2 [2]","Cell viability, BEAS-2B, Data3 [2]","Average cell viability, HEK293T [3]","Cell viability, HEK293T, Data1 [3]","Cell viability, HEK293T, Data2 [3]","Cell viability, HEK293T, Data3 [3]","Average cell viability, HPNE [4]","Cell viability, HPNE, Data1 [4]",also measured
ESKDQ [TaPep55],1.27,-4.53,7.76,2.75,-2.34,11.12,-19.80,11.30,5.21,-7.81,109.14,112.96,98.40,116.05,98.14,94.73,101.07,98.61,94.61,105.92,"Cell viability, HPNE, Data2 [4]: 82.36; Cell viability, HPNE, Data3 [4]: 95.54; Average cell viability, HUVEC [5]: 102.82; Cell viability, HUVEC, Data1 [5]: 107.29; Cell viability, HUVEC, Data2 [5]: 96.11; Cell viability, HUVEC, Data3 [5]: 105.06"
VEKVE [TaPep67],1.99,-4.10,7.39,4.01,-4.19,10.40,-19.59,9.82,6.41,-3.54,110.54,94.32,118.94,118.34,100.22,99.37,105.99,95.30,96.14,105.92,"Cell viability, HPNE, Data2 [4]: 99.23; Cell viability, HPNE, Data3 [4]: 83.26; Average cell viability, HUVEC [5]: 100.75; Cell viability, HUVEC, Data1 [5]: 112.48; Cell viability, HUVEC, Data2 [5]: 97.95; Cell viability, HUVEC, Data3 [5]: 91.80"
EVGMQE [TaPep56],2.28,-4.04,7.18,3.33,-4.96,9.59,-21.19,6.57,7.84,-7.49,108.94,97.91,109.67,119.24,101.26,104.86,101.55,97.38,104.53,109.42,"Cell viability, HPNE, Data2 [4]: 91.95; Cell viability, HPNE, Data3 [4]: 112.21; Average cell viability, HUVEC [5]: 106.36; Cell viability, HUVEC, Data1 [5]: 96.04; Cell viability, HUVEC, Data2 [5]: 108.89; Cell viability, HUVEC, Data3 [5]: 114.16"
AQSSLS [TaPep40],2.37,-3.91,7.48,3.31,-5.48,10.99,-19.59,10.09,10.64,-5.29,101.16,116.45,94.02,93.02,100.57,103.15,101.26,97.29,106.99,100.53,"Cell viability, HPNE, Data2 [4]: 109.02; Cell viability, HPNE, Data3 [4]: 111.41; Average cell viability, HUVEC [5]: 101.30; Cell viability, HUVEC, Data1 [5]: 102.66; Cell viability, HUVEC, Data2 [5]: 110.88; Cell viability, HUVEC, Data3 [5]: 90.37"
LNGPQ [TaPep63],1.41,-6.21,7.27,4.12,-2.72,15.39,-20.42,10.16,5.62,-5.33,103.52,114.46,93.02,103.09,99.12,94.35,104.86,98.14,97.14,82.16,"Cell viability, HPNE, Data2 [4]: 94.94; Cell viability, HPNE, Data3 [4]: 114.31; Average cell viability, HUVEC [5]: 95.61; Cell viability, HUVEC, Data1 [5]: 91.41; Cell viability, HUVEC, Data2 [5]: 96.35; Cell viability, HUVEC, Data3 [5]: 99.07"
AQDDLP [TaPep20],1.29,-4.77,7.24,3.35,-2.48,11.76,-21.79,6.62,5.13,-4.17,101.76,114.06,96.91,94.32,99.56,100.69,99.18,98.80,110.18,113.51,"Cell viability, HPNE, Data2 [4]: 117.20; Cell viability, HPNE, Data3 [4]: 99.83; Average cell viability, HUVEC [5]: 100.19; Cell viability, HUVEC, Data1 [5]: 93.96; Cell viability, HUVEC, Data2 [5]: 106.73; Cell viability, HUVEC, Data3 [5]: 99.87"
NGDDEEG [TaPep7],1.28,-5.11,7.41,bitterness suppression and -0.45,-2.86,11.92,-21.22,9.19,6.98,-6.18,102.56,94.72,111.17,101.79,95.11,96.15,94.73,94.45,99.30,92.35,"Cell viability, HPNE, Data2 [4]: 93.04; Cell viability, HPNE, Data3 [4]: 112.51; Average cell viability, HUVEC [5]: 105.24; Cell viability, HUVEC, Data1 [5]: 113.68; Cell viability, HUVEC, Data2 [5]: 110.16; Cell viability, HUVEC, Data3 [5]: 91.88"
TPRKQ [TaPep37],1.93,-5.88,7.34,3.28,-4.03,12.49,-13.82,15.18,4.01,-5.26,100.23,95.41,110.47,94.82,100.47,100.50,96.44,104.48,94.98,108.02,"Cell viability, HPNE, Data2 [4]: 84.26; Cell viability, HPNE, Data3 [4]: 92.65; Average cell viability, HUVEC [5]: 107.80; Cell viability, HUVEC, Data1 [5]: 111.04; Cell viability, HUVEC, Data2 [5]: 111.52; Cell viability, HUVEC, Data3 [5]: 100.82"
FTEELE [TaPep32],1.89,-4.56,7.51,2.80,-3.82,11.60,-20.95,9.59,8.60,-6.23,106.88,104.99,104.59,111.07,100.73,105.14,99.56,97.48,103.23,117.80,"Cell viability, HPNE, Data2 [4]: 110.72; Cell viability, HPNE, Data3 [4]: 81.16; Average cell viability, HUVEC [5]: 98.11; Cell viability, HUVEC, Data1 [5]: 111.20; Cell viability, HUVEC, Data2 [5]: 89.81; Cell viability, HUVEC, Data3 [5]: 93.32"

# — article PMC12543283, “TastepepAI: An artificial intelligence platform for taste peptide de novo design” (PLOS Computational Biology, 2025)
